Experimental data from publication PMC8949893, “Chemical Synthesis, Pharmacokinetic Properties and Biological Effects of JM-00266, a Putative Non-Brain Penetrant Cannabinoid Receptor 1 Inverse Agonist” (International Journal of Molecular Sciences, 2022).

Tests used:
[1] = Plasma kinetic profile after i.p., oral or intravenous administration; assay type: in vivo, mice; details: for Maximal drug plasma concentration: n = 4
Procedure: (§1) At 1, 2, 4 and 8 h post-administration, animals were killed by cervical dislocation and blood was collected from the vena cava into tubes containing heparin and centrifuged immediately at 6500× g for 10 min at 4 °C. For determination of tissue distribution, brain, liver and adipose tissue were collected 4 h post-gavage. Plasma and tissue samples were directly extracted for further analysis by Liquid chromatography coupled to tandem mass spectrometry (LC-MS/MS).
(§2) Tissues were homogenized with a mini-bead beater (BioSpec Products, Bartlesville, OK) in 10 volumes of acetonitrile containing 15 ng of internal standard, JM-00252. Blood samples were centrifuged at 6500× g during 10 min 4 °C and 5 µL of plasma were diluted in 10 volumes of acetonitrile containing 15 ng of internal standard. Then, each homogenate of tissue or plasma was centrifuged for 10 min at 6500× g and the supernatant was recovered and carefully transferred to new glass tubes. Finally, the extract was injected into a 1200 LC system coupled to a 6460-QqQ MS/MS system equipped with a JetStream ESI source (Agilent technologies, Les Ulis, France). Separation was achieved on a Poroshell 120 EC-C8 2.1 mm × 100 mm, 2.7 µm column (Agilent technologies) at a flow rate of 0.4 mL.min^−1, 55 °C, with a linear gradient of (solvent A) water containing 1 mM ammonium formate and 0.2% formic acid and (solvent B) methanol containing 1 mM ammonium formate and 0.2% formic acid and as follows: 50% B for 1 min, up to 100% B in 4 min, and then maintained at 100% for 2 min. The acquisition was performed in positive Single Reaction Monitoring (SRM) mode (source temperature: 300 °C, nebulizer gas flow rate was 10 L·min^−1, 15 psi, sheath gas flow 7 L·min^−1, temperature 225 °C, capillary 4000 V, nozzle 1500 V). […] Results are expressed as ng·g^−1 for tissues and ng·mL^−1 for plasma.

[2] = Tissue distribution 4 h after gavage; assay type: in vivo; details: mice, 4 h after gavage in oil, 10 mg·kg−1
Procedure: as §1, §2

[3] = Brain/plasma ratio (B/P); assay type: in vivo; details: mice; for Effect of the administration route on distribution in brain and plasma: 10 mg·kg−1, i.p. vs oral; for Kp: mouse, brain, intraperitoneal
Procedure: as §2
Brain/plasma ratios (B/P) were determined as previously described. […] Blood and brain were collected and directly extracted for further analysis by LC-MS/MS.

[4] = target: T1, murine CB1R (Mus musculus, UniProt P47746); assay: GloSensor cAMP functional assay in CB1R-transfected HEK293T/17 cells; assay type: cell-based
T1 construct: host or cells: HEK293T/17
Procedure: GloSensor™ cAMP assay designed by Promega (Charbonnières-les-Bains, France) was used to monitor activation of CB1R. HEK293T/17 cells obtained from the American Type Cell Culture Collection (LGC Promochem, Molsheim, France) were seeded at 30,000 cells per well on poly-D-lysine coated 96-well plates (BD Biosciences, Le Pont de Claix, France). They were grown in Dulbecco’s Modified Eagle Medium (DMEM, Waltham, MA, USA) containing 2 mM glutamax and 10% fetal bovine serum. Twenty-four hours later, cells were transiently co-transfected with 50 ng per well of pcDNA3-mouse CB1R (plasmid #13391 supplied by Addgene, Cambridge, MA, USA) which was a gift from Mary E. Abood (California Pacific Medical Center Research Institute, San Francisco, California) and pGlo™-22F cAMP plasmid-luciferase (100 ng per well) allowing these cells to produce light proportionally to intracellular CB1R-dependent cAMP level. Transfection was performed using the Fugene®HD transfection reagent (Promega) for 24 h according to the manufacturer’s instructions. Mock transfections were performed with the empty vector pcDNA3. Twenty-four hours after transfection, cells were equilibrated for 2 h with a CO2-independent medium (Gibco®, Life Technologies, Courtaboeuf, France) supplemented with the GloSensor™ cAMP reagent before adding tested compounds. When a steady-state basal signal was obtained, cells were incubated for 10 min with 1 µM forskolin (Sigma) at room temperature to enhance the intracellular basal cAMP level. Then increasing concentrations of JM-00266 (0.1 µM to 1 mM) were added in the reaction medium in the presence or absence of anandamide (0.1 µM to 1 µM) and luminescence was measured for 20 min with a Victor 3V plate reader (Perkin Elmer, Courtaboeuf, France). […] When GloSensor™ cAMP assays were carried out in the presence of 0.1 µg·mL^−1 pertussis toxin (Sigma), this compound was added in the incubation medium 24 h before incubation with forskolin. All assays were performed in duplicate and each experiment was repeated three times. Results were expressed as the percentage of forskolin-stimulated luciferase activity. The EC50 values were generated using the Sigma Plot software.

[5] = system: mice; assay: Food intake in 24-h food-deprived mice; assay type: in vivo; details: ACEA 1 mg/kg i.p.; for Cumulative 3-h food intake, co-administration with ACEA: Rimonabant 10 mg·kg−1, JM-00266 20 mg·kg−1
Procedure: For food intake experiments, mice were food-deprived for 24 h before being submitted to an i.p. injection of ACEA (1 mg·kg^−1). […] Cumulative food intake was measured every hour over a period of 3 h from refeeding.

[6] = system: mice; assay: Body (rectal) temperature measurement; assay type: in vivo; details: for Effect on hypothermic response to ACEA: pre-treatment 20 min before ACEA 1 mg·kg−1, Rimonabant 10 mg·kg−1, JM-00266 20 mg·kg−1, t = 30 min
Procedure: Mice rectal temperature was assessed using a VT4810 controller (Vertex Technology Corp., New Taipei City, Taiwan) adapted with a mouse rectal probe. In the first experiment, the impact of anandamide (10 mg·kg^−1) on body temperature was recorded during 30 min on animals injected either 20 min earlier with vehicle or JM-00266 (20 mg·kg^−1).

[7] = system: mice; assay: Open field test (anxiety-related behavior); assay type: in vivo; details: 10 mg·kg−1 i.p. 30 min before, 10 min exploration
Procedure: Anxiety-related behavior was assessed using the open field test (OF; Mouse Open Field Arena ENV-510; Med Associates Inc., Fairfax, VT, USA). […] The two regions were defined by grid lines that divided each box into the center and periphery, with each of the four lines being 11 cm from each wall.

[8] = system: mice; assay: Gastro-intestinal transit (charcoal marker); assay type: in vivo
Procedure: Short-term effects of JM-00266 on gastro-intestinal transit were tested as an indicator of peripheral CB1R activity. Transit was measured by administering a non-absorbed marker (10% charcoal suspension in 5% gum arabic) as previously described.

[9] = system: C57BL/6 wild type mice; assay: Oral glucose tolerance test (OGTT) in wild type mice; assay type: in vivo
Procedure: (§3) To test acute effects of JM-00266 on glucose metabolism and their specificity to CB1R, C57BL/6 wild type mice and CB1R^−/− mice fasted for 6 h were subjected to an oral glucose tolerance test (OGTT, 2 g·kg^−1 glucose) and to an insulin tolerance test (ITT) using 0.5 UI·kg^−1 insulin (Actrapid, Novo Nordisk, La Défense, France) 10 min after i.p. injection of JM-00266 (10 mg·kg^−1) or vehicle. For both tests, glycemia was monitored during 120 min post-injection with a My Life Pura TM glucose meter (Ypsomed, Paris, France) directly on a blood drop from the tail. Corresponding AUC0–2 h were calculated.

[10] = system: C57BL/6 wild type mice; assay: Insulin tolerance test (ITT); assay type: in vivo; details: 10 mg·kg−1 i.p. 10 min before insulin 0.5 UI·kg−1
Procedure: as §3

[11] = system: CB1R−/− mice; assay: Oral glucose tolerance test (OGTT) in CB1R−/− mice; assay type: in vivo; details: 10 mg·kg−1 i.p. 10 min before glucose gavage
Procedure: as §3

[12] = system: mice; assay: In vivo lipolysis: plasma glycerol appearance after BRL37344; details: JM-00266 i.p. 4 h before BRL37344 5 mg·kg−1 i.p.
Procedure: In vivo experiments. Overnight-fasted mice were injected i.p. with JM-00266 (mg·kg^−1) or vehicle. Four hours later, mice were injected i.p. with the specific ß3-adrenergic receptor agonist, BRL37344 (5 mg·kg^−1). Blood samples (~25 µL) were collected from tails in tubes containing EDTA (Sarstedt, Nümbrecht, Germany) at times 0, 15, 30, 45 and 60 min after BRL37344 injection to measure plasma glycerol appearance using a colorimetric assay (glycerol FS, DiaSys, Condom, France).

[13] = system: visceral adipose tissue explants; assay: In vitro lipolysis: glycerol release by adipose tissue explants from treated mice; details: explants from mice injected with JM-00266 10 mg·kg−1 4 h before sacrifice, 1 h culture
Procedure: In vitro experiments. Overnight-fasted mice were injected i.p. with JM-00266 (mg·kg^−1) or vehicle. Four hours later, mice were anesthetized with pentobarbital (50 mg·kg^−1) and epididymal adipose tissue was collected, rinsed in a warm medium (DMEM-HAM/F12) supplemented with 1% BSA, and dissected into ~10 mg pieces. Then, 5–6 explants were incubated in a 5% CO2 atmosphere at 37 °C under slight agitation in 1 mL of the same medium. Free glycerol in the culture medium was determined after 1 h of incubation using a colorimetric assay (glycerol FS, DiaSys).

[14] = 10 mg·kg−1, i.p. or oral, DMSO/Tween 80 aqueous solution, at maximal absorption time point

T1 sequence (P47746 whole entry): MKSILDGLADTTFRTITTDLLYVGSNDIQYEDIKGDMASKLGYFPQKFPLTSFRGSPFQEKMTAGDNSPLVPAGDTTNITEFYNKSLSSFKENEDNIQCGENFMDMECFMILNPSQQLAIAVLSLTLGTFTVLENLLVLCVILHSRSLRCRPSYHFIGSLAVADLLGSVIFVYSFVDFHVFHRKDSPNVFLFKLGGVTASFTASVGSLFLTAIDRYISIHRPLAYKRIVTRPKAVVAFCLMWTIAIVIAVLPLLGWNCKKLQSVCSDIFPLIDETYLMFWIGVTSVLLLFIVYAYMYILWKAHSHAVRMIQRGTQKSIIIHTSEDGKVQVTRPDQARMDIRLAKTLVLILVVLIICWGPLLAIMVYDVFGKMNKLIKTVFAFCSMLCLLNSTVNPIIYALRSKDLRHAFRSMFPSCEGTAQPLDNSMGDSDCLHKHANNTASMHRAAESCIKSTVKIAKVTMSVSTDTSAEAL

CSc1ccc(C2C(N3C(=O)c4ccccc4C3=O)C(=O)N2c2ccc(SC)cc2)cc1 (stereo not shown) [JM-00266, 1,4-di-(4-méthylthiophenyl)-3-phthaloylazetidin-2-one]
Plasma clearance compared with Rimonabant ([1]; intravenous administration): slightly higher clearance | Time of peak drug plasma concentration ([1]; mice, i.p. 10 mg·kg−1, DMSO/Tween solution): 30 min | Maximal drug plasma concentration ([1]; mice, i.p. 10 mg·kg−1, mean ± SEM): 378 ± 27 ng/mL | Time of peak drug plasma concentration ([1]; mice, oral 10 mg·kg−1, dissolved in oil): 60 min | Maximal drug plasma concentration ([1]; mice, oral 10 mg·kg−1, mean ± SEM): 203 ± 18 ng/mL | Concentrations in plasma and tissues compared with Rimonabant [2]: lower concentrations in plasma and tissues than Rimonabant | Tissue distribution (plasma, brain, liver, visceral adipose tissue) [2]: preferentially accumulated in the liver and the adipose tissue whereas brain concentration remained very low | Brain/plasma ratio (B/P) [3, 14]: significantly lower | Effect of the administration route on distribution in brain and plasma [3]: not modified | Kp [3, 14]: 0.3 to 0.5 | Effect on cAMP formation, compound alone ([4]; HEK293T/17 cells transfected with murine CB1R, 0.1 µM to 1 mM): dose-dependent increase in cAMP formation | EC50 ([4]; HEK293T/17 cells transfected with murine CB1R, forskolin 1 µM, GloSensor luminescence, read-out: EC50, increase in cAMP formation (inverse agonism)): 249 µM | cAMP response with increasing concentrations of anandamide ([4]; anandamide 0.1 µM to 1 µM): lost | cAMP response in the presence of pertussis toxin ([4]; pertussis toxin 0.1 µg·mL−1 added 24 h before): lost | Cumulative 3-h food intake, co-administration with ACEA [5]: not observed | Effect on anandamide-induced decrease in rectal temperature ([6]; JM-00266 20 mg·kg−1 20 min before anandamide 10 mg·kg−1, 30 min recording): not able to counteract the decrease in rectal temperature | Effect on hypothermic response to ACEA [6]: had no effect | Open field: locomotor activity (total ambulatory distance) [7]: did not alter | Open field: number of center entries [7]: did not alter | Open field: time spent in the center [7]: did not alter | Effect on anandamide-induced slowing down of gastro-intestinal transit ([8]; JM-00266 10 mg·kg−1 10 min before anandamide 10 mg·kg−1): abrogated | Plasma insulin levels during OGTT ([9]; 10 mg·kg−1 i.p.): lower than vehicle | Glucose tolerance (OGTT) vs vehicle ([9]; 10 mg·kg−1 i.p. 10 min before glucose gavage 2 g·kg−1): improved glucose tolerance | Glycemia during ITT (insulin sensitivity) [10]: lower glycemia over time compared to vehicle treated mice | Glucose tolerance (OGTT) vs vehicle [11]: failed to improve glucose tolerance | ß-adrenergic-induced glycerol production (plasma glycerol) vs vehicle [12]: increased | Glycerol release by visceral adipose tissue explants vs control [13]: higher than in the control

CCCCC/C=C\C/C=C\C/C=C\C/C=C\CCCC(=O)NCCO [anandamide, Arachidonylethanolamide, reference compound]
Effect on rectal temperature, agonist alone ([6]; anandamide 10 mg·kg−1): decrease in rectal temperature | Effect on gastro-intestinal transit, agonist alone ([8]; anandamide 10 mg·kg−1): slowing down of gastro-intestinal transit

Cc1c(C(=O)NN2CCCCC2)nn(-c2ccc(Cl)cc2Cl)c1-c1ccc(Cl)cc1 [Rimonabant, reference compound]
Bioavailability compared with JM-00266, whatever the administration route ([1]; mice, 10 mg·kg−1, i.p. or oral): far higher | Tissue distribution (plasma, brain, liver, visceral adipose tissue) [2]: preferentially accumulated in the liver and the adipose tissue whereas brain concentration remained very low | Effect of the administration route on distribution in brain and plasma [3]: strongly affected | Kp [3, 14]: > 1 | Cumulative 3-h food intake, co-administration with ACEA [5]: strong hypophagia | Effect on hypothermic response to ACEA [6]: fully inhibited the hypothermic response | Open field: locomotor activity (total ambulatory distance) [7]: did not significantly alter | Open field: number of center entries [7]: did not significantly alter | Open field: time spent in the center [7]: significantly decreased

CCCCC/C=C\C/C=C\C/C=C\C/C=C\CCCC(=O)NCCCl.O [ACEA, Arachidonyl-2′-chloroethylamide hydrate]
Cumulative 3-h food intake, agonist alone [5]: no effect on food intake | Effect on rectal temperature, agonist alone ([6]; ACEA 1 mg·kg−1, t = 30 min): hypothermic response
